ChEMBL document CHEMBL1201862, “PubChem BioAssay data set” (2004)
The source made the active and inactive calls.

Experiments:
[1] = MC4R antagonists, dose response, counter-screen for LGR2 antagonist project, cell-based, plate reader, cherry pick (AID 743444); format: functional;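 note: transfected HEK 293 cells stimulated with alpha-MSH peptide; potency of inhibitors of the alpha-MSH evoked signal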
[2] = A549 cell cytotoxicity, dose response, cytotoxicity control, plate reader, cherry-pick, antagonist series (AID 743412); format: functional, cell-based
[3] = molecular target: Glucose-6-phosphate 1-dehydrogenase (Homo sapiens, UniProt P11413); test: human G6PD enzyme inhibitors, dose response, selectivity assay for P. falciparum G6PD inhibitor project, biochemical, fluorescence (AID 504792); format: functional
Chain of Glucose-6-phosphate 1-dehydrogenase (P11413 whole entry): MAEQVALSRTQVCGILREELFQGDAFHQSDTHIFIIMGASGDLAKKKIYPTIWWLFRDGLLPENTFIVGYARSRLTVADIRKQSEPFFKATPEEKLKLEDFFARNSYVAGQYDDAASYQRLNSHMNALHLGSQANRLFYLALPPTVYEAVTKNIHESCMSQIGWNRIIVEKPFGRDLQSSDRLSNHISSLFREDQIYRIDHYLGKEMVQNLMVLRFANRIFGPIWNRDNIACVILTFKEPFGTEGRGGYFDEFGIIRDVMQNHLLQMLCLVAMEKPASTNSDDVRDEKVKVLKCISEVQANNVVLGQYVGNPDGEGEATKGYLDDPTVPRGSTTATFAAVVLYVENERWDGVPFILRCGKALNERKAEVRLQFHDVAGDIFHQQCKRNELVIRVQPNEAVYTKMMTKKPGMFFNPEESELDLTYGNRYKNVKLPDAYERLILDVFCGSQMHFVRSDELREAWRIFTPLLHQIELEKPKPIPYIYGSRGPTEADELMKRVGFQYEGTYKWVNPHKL

[4] = LGR2 antagonists, dose response, cell-based, HEK293, CRE-luciferase reporter, cherry pick, set 2 (AID 743343); format: functional;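 note: transfected cells were stimulated with diluted bursicon conditioned medium after compound addition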
[5] = molecular target: T1, Voltage-gated N-type calcium channel alpha-1B subunit/Amyloid beta A4 precursor protein-binding family A member 1 (Homo sapiens, UniProt Q00975+Q02410); format: protein assay
T1 sequence (Q00975 whole entry): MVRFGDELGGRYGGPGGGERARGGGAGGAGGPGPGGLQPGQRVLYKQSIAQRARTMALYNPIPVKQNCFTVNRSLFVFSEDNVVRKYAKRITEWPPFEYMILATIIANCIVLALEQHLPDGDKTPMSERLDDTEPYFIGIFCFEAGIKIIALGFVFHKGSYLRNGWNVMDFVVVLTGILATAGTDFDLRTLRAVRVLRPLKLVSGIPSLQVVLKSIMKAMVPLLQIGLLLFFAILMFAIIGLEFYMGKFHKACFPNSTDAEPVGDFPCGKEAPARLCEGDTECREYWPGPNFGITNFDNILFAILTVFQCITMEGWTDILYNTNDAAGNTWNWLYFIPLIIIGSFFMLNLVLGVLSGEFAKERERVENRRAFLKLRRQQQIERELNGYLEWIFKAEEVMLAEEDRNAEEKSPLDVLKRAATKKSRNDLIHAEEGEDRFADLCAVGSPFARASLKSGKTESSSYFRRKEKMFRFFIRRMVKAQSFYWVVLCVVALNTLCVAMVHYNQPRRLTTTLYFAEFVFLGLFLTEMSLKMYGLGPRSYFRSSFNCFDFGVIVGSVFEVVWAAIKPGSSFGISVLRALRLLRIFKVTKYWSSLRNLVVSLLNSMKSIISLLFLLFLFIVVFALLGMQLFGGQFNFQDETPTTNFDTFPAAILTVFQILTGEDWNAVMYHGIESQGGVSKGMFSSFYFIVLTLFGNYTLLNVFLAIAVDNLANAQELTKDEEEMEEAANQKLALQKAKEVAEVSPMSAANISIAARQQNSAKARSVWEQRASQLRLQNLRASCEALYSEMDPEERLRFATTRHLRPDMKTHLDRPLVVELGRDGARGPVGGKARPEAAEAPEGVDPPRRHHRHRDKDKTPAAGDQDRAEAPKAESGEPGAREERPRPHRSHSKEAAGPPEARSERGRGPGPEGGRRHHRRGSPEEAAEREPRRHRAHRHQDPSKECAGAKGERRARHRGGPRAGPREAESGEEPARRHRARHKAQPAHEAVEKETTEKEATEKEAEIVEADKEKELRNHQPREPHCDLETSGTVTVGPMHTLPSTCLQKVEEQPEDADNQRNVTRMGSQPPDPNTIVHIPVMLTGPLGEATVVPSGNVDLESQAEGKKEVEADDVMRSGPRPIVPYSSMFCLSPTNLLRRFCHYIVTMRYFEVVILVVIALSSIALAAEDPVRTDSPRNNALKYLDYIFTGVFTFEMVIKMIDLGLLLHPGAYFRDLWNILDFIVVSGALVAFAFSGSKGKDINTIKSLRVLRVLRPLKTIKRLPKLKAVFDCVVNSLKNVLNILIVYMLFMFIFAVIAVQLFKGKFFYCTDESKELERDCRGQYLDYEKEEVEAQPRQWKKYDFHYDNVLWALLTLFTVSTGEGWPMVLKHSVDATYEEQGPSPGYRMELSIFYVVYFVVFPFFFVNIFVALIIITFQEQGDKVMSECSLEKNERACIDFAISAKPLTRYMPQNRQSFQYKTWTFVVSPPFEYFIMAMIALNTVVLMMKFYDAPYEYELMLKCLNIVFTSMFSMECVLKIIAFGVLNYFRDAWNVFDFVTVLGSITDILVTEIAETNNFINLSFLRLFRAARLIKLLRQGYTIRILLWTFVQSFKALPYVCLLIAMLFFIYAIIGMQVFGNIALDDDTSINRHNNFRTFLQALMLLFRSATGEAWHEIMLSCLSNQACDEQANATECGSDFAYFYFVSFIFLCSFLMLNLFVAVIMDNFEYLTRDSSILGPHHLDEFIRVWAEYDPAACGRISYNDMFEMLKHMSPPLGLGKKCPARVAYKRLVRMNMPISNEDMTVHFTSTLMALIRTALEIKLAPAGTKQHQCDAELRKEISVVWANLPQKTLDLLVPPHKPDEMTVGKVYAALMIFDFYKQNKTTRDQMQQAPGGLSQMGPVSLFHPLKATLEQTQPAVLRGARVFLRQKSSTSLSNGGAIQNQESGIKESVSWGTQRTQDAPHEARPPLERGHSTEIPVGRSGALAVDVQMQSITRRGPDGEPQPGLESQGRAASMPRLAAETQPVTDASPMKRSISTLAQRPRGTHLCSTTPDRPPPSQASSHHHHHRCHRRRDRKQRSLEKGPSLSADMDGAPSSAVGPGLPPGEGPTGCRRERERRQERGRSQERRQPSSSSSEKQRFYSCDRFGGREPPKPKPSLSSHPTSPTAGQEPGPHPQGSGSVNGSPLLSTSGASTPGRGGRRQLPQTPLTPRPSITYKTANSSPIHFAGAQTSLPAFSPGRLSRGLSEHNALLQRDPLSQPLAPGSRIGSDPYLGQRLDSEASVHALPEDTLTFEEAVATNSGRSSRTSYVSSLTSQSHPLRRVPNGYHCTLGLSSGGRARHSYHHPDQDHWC
T1 sequence (Q02410 whole entry): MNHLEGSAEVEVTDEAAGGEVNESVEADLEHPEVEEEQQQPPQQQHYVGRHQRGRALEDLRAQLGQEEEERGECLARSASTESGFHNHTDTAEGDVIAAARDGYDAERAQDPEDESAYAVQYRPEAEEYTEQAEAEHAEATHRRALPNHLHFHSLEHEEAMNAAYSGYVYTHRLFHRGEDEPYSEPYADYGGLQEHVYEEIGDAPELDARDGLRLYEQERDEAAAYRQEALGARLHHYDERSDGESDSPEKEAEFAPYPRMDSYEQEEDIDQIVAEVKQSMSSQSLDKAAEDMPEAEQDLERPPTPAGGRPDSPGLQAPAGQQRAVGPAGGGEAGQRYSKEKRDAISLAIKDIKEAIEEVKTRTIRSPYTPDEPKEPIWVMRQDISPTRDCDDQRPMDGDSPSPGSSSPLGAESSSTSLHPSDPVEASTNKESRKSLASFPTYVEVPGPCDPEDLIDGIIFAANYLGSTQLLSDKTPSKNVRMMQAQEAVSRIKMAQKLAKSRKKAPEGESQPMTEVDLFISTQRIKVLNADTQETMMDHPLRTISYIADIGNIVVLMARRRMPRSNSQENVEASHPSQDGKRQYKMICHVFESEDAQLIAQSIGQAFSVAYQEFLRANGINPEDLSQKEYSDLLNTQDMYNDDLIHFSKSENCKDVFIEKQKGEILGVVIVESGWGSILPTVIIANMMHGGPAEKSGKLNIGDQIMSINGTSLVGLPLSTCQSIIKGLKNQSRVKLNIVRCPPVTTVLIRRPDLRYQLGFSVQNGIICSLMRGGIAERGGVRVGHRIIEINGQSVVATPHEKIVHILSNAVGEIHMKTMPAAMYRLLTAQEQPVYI

[6] = molecular target: T1, Voltage-gated N-type calcium channel alpha-1B subunit/Amyloid beta A4 precursor protein-binding family A member 1; format: protein assay; remark: listed apart in the source
Nonstructural protein 1 = Nonstructural protein 1 (Influenza A virus, UniProt Q194T2); format: functional, Influenza A virus (A/California/07/2009(H1N1))
Chain of Nonstructural protein 1 (Q194T2 whole entry): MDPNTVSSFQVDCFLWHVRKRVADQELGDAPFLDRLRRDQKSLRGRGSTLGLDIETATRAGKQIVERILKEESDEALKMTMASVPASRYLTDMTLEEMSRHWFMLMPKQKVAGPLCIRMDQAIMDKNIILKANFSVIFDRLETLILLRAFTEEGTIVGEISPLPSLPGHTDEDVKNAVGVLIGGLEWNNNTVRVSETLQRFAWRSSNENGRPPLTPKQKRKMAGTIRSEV

BJ [7] = test: cytotoxicity toward BJ-TERT fibroblasts, dose response, cell-based, RAS-independent, luminescence (AID 1933); format: functional; settings: Homo sapiens
[8] = cytotoxicity toward DRD oncogenic fibroblasts, dose response, cell-based, non-viral oncogenic, luminescence (AID 1934); format: functional; settings: Homo sapiens
BJ [9] = test: cells; format: functional, cell-based; settings: Homo sapiens
BJ [10] = test: cytotoxicity toward BJ-TERT-LT-ST fibroblasts, dose response, cell-based, RAS-independent, luminescence (AID 1935); format: functional; settings: Homo sapiens;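 note: BJ fibroblasts immortalized with TERT plus LT and ST oncogenes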
[11] = Luminescence Cell-Based Dose Retest to Confirm Inhibitors of Cancer Stem Cells. [Related pubchem assays (depositor defined):AID2717, AID2721]; format: functional; settings: Homo sapiens
H9c2 = test: cells; format: functional, cell-based; settings: Rattus norvegicus, H9c2, Myocardium
Leucine aminopeptidase = molecular target: T2, Leucine aminopeptidase (Plasmodium falciparum 3D7, UniProt Q8IL11); test: P. falciparum M17LAP inhibitors, primary screen, biochemical, fluorogenic H-Leu-NHMec substrate, 1536-well (AID 1619); format: functional
T2 sequence (Q8IL11 whole entry): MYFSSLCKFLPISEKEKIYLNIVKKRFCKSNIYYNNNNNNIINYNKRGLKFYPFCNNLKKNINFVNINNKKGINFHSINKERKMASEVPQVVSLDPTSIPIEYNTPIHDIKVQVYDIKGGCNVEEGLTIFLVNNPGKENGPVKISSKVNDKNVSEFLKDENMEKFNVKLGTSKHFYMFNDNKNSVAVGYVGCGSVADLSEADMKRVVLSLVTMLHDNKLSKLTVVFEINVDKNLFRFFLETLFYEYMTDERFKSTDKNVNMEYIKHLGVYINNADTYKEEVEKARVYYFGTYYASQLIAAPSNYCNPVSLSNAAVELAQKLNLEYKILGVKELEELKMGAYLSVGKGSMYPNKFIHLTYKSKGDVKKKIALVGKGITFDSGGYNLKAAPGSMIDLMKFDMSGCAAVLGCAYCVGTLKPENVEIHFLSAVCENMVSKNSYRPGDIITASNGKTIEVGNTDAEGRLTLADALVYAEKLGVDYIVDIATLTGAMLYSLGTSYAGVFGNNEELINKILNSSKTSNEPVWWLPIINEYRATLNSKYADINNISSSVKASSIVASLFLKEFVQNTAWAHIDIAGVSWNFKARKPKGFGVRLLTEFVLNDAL

[12] = molecular target: T3, High affinity choline transporter 1 (Homo sapiens, UniProt Q9GZV3); test: CHT inhibitors, dose response, cell-based, 5-point CRC, membrane potential dye (AID 504840); format: functional
T3 sequence (Q9GZV3 whole entry): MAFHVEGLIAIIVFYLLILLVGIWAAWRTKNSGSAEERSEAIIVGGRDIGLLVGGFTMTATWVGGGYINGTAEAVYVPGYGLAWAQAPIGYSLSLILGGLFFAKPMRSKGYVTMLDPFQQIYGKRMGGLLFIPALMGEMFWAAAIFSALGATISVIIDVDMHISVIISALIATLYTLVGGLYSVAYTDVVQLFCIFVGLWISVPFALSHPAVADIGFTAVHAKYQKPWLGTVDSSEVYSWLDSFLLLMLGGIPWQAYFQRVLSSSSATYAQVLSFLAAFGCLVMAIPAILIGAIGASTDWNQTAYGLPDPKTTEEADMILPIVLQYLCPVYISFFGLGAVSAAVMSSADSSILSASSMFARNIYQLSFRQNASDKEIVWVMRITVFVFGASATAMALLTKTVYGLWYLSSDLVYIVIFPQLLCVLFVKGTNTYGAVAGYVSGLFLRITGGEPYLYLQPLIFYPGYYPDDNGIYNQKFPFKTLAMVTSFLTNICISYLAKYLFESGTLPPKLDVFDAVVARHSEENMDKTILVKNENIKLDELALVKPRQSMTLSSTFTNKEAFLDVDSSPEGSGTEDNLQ

[13] = molecular target: Peroxisome proliferator-activated receptor gamma/Nuclear receptor coactivator 1 (Homo sapiens, UniProt P37231); test: TR-FRET dose response biochemical High Throughput Screening assay for agonists of the steroid receptor coactivator 1 (SRC-1) recruitment by the peroxisome proliferator-activated receptor gamma (PPAR gamma): non-selective agonists. [Related pubchem assays (depositor defined):AID1300, AID1808, AID504735, AID631]; format: protein assay
[14] = molecular target: Peroxisome proliferator-activated receptor gamma/Nuclear receptor coactivator 2 (Homo sapiens, UniProt P37231); test: (§1) TR-FRET dose response biochemical High Throughput Screening assay for agonists of the steroid receptor coactivator 2 (SRC-2) recruitment by the peroxisome proliferator-activated receptor gamma (PPAR gamma): non-selective agonists. [Related pubchem assays: 1297, 1032 ]; format: functional
[15] = molecular target: Peroxisome proliferator-activated receptor gamma/Nuclear receptor coactivator 3 (Homo sapiens, UniProt P37231); test: as §1, with “3 (SRC-3)” for “2 (SRC-2)”, “1301 (Confirmation screen.), 1048 (Primary screen.)]” for “1297, 1032 ]”; format: functional

## CSc1nnc(NC(=O)c2ccc3c(c2)OCO3)s1
[1]
  AC50: 1.86 µM (active)
[2]
  AC50: > 52 µM (inactive)
[3]
  IC50: 22.5 µM (inactive)
[4]
  AC50: 1.72 µM (active)

## CCN(C(=O)CN1C(=O)S/C(=C\C=C\c2ccccc2)C1=O)C1CCS(=O)(=O)C1 (centres undefined)
[5]
  IC50: > 50 µM (inactive)
[6]
  IC50: > 56.8 µM (not active)

## O=C(Nc1ccc(F)cc1)C1=CC(=O)N2CCN=C2S1
[5]
  IC50: > 50 µM (inactive)
[6]
  IC50: 10.7 µM (active)

## Cc1ccc(S(=O)(=O)/N=C2\C(=O)c3ccccc3C(O)=C2N2CCN(c3ccccc3F)CC2)cc1
Nonstructural protein 1
  IC50: 79.2 µM (active)

## CN(C)CCCNc1ccc(-c2cc(Nc3cccc(Cl)c3)ncn2)cn1
BJ [7]
  EC50: 14.1 µM (active)
[8]
  EC50: 22.6 µM (active)
BJ [9]
  EC50: > 150 µM (not active)
BJ [10]
  EC50: > 75 µM (not active)
[11]
  AC50: 4.54 µM (active)

## COc1ccccc1OCC(=O)N/N=C/c1cccc2cccnc12
Nonstructural protein 1
  IC50: 13.5 µM (active)
H9c2
  IC50: 10.9 µM (active)

## CNS(=O)(=O)c1ccc(-c2ccc(C=C3C(=O)NC(=O)NC3=O)o2)cc1
[3]
  IC50: 51.2 µM (inactive)

## Oc1ccc(/C=N/NC(=S)Nc2cccnc2)cc1O
Leucine aminopeptidase
  IC50: 49.6 µM (active)

## C=CCN1C=C/C(=C\C=C(C#N)C#N)c2ccccc21
Nonstructural protein 1
  IC50: 14.2 µM (active)

## O=C(NCc1cccnc1)c1ccc(COc2ccccc2Cl)o1
[12]
  IC50: 14.5 µM (active)

## O=C(O)CSc1nnc(CNc2cccc(C(F)(F)F)c2)n1Cc1ccco1
Leucine aminopeptidase
  IC50: 48.8 µM (active)

## CCn1c(=O)cc(SCC(=O)Nc2cccnc2)c2ccccc21
[13]
  EC50: > 79.4 µM (inactive)
[14]
  EC50: > 79.4 µM (not active)
[15]
  EC50: > 79.4 µM (not active)
